Starred links: 1 amine or outer side, 2 acyl side, 3 side chain; linkers in the order of their positions; H or OH if unused. Positions of bridges follow the written chain, without caps; N, C: chain ends. Non-standard residues stand in square brackets, D forms with d. Residues, ends and D or L forms follow the SMILES beside them. Groups on a side chain read outwards from the residue. *: point of attachment. X6 = CSCC[C@H](NC(=O)c1ccc(CNC(=O)CN2CCN(CC(=O)O)CCN(CC(=O)O)CCN(CC(=O)O)CC2)cc1)C(=O)N[C@H](C(=O)N[C@@H](CCCCN*)C(=O)O)C(C)C; Ala(piperidin-4-yl) = O=C([C@H](CC1CCN([*:3])CC1)N[*:1])[*:2]; DOTA = O=C(O)CN1CCN(CC(=O)O)CCN(CC(=O)*)CCN(CC(=O)O)CC1; Trp(5-F) = N[C@@H](Cc1c[nH]c2ccc(F)cc12)C(=O)O; X1 = C[C@@H](c1ccccc1)[C@H](N[*:1])C(=O)[*:2]; γGlu = O=C(O)[C@H](CCC(=O)[*:2])N[*:1]; Ala(4-THP) = N[C@@H](CC1CCOCC1)C(=O)O; Val(3-OH) = CC(C)(O)[C@H](N)C(=O)O; PEG4 = NCCOCCOCCOCCOCCC(=O)O; Tle = CC(C)(C)[C@H](N)C(=O)O; hLeu = CC(C)CC[C@H](N)C(=O)O
Tests used:
Calu-6 cell line [1] = test: Net internalization of [177Lu]Lu-labeled peptide in Calu-6 cells; assay type: cell-based, Human; details: 1 hour, 37° C., glycine pH 2.5 acid wash
Method in brief: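 Calu-6 cells, human non-engineered lung cancer expressing B7-H3, resuspended in 1% PBSA at 5 million cells/mL and incubated with the 177Lu-labeled conjugate (labeled at 80 °C, pH ~5, RP-HPLC checked). Gamma counting of the bound fraction, then of the pellet after two glycine pH 2.5 acid strips and NaOH lysis, gives internalized activity.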

human 4lg B7-H3 = biological target: T1, human 4lg B7-H3 (Homo sapiens, UniProt Q5ZPR3); test: Affinity determination by surface plasmon resonance (SPR) to 4Ig B7-H3; details: SPR KD—37° C., 4Ig B7-H3; 37° C. flow cell temperature
T1 sequence (Q5ZPR3 29-534): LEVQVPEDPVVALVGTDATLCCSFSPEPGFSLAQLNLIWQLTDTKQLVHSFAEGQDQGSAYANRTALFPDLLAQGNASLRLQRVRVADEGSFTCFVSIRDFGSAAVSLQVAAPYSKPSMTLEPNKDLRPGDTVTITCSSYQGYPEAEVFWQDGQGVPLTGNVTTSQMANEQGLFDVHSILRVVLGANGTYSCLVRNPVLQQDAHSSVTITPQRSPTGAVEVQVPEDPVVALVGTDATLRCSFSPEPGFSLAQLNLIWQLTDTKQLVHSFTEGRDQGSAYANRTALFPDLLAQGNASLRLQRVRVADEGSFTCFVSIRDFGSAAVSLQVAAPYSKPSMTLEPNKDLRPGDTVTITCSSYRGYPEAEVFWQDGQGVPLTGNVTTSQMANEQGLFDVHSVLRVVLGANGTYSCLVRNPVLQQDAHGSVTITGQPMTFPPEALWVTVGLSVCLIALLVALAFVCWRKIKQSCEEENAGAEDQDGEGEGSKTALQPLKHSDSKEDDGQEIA

2Ig B7-H3 = biological target: T2, 2Ig B7-H3 (Homo sapiens, UniProt Q5ZPR3); test: SPR binding affinity to 2Ig B7-H3; details: 37° C.; read-out: 2Ig B7-H3_KD (nM) at 37° C.
T2 sequence (Q5ZPR3 29-316 isoform Q5ZPR3-2 limits assumed): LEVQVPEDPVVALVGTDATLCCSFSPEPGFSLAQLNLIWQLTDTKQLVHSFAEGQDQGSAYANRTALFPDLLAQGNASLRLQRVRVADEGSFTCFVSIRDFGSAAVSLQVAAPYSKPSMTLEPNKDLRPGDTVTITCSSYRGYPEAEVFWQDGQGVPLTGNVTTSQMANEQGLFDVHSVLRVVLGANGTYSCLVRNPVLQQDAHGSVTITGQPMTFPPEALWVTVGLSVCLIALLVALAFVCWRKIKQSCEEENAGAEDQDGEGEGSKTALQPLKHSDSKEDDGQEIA

Calu-6 cell line [2] = test: Cell associated (bound) fraction of [177Lu]Lu-labeled peptide in Calu-6 cells; assay type: cell-based, Human; details: 1 hour, 37° C.
Method in brief: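 Detached B7-H3-expressing human lung cancer cells at 5 million/mL were exposed for 1 hour at 37 °C to 0.8 μCi of the 177Lu-labelled peptide, which was formulated in 1% PBSA after labelling at 80 °C, pH ~5. Supernatant and two cold washes counted as unbound, and resuspended cells gamma-counted as the cell-associated fraction.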

Row | Compound | Kd (human 4lg B7-H3) | Kd (2Ig B7-H3) | % net internalization (Calu-6 cell line [1]) | % cell associated fraction (Calu-6 cell line [2])
1 | CC(=O)N[C@@H](CCC(C)C)C(=O)N[C@@H](Cc1ccc(O)cc1)C(=O)N[C@H]1CSSC[C@@H](C(=O)N[C@@H](Cc2c[nH]c3ccc(F)cc23)C(=O)N[C@@H](Cc2ccccc2)C(=O)N[C@H](C(=O)N[C@H](CO)C(N)=O)C(C)(C)O)NC(=O)[C@H](Cc2ccc(O)cc2)NC(=O)[C@H](C(C)C)NC(=O)[C@H](CC(=O)O)NC(=O)[C@H](CC2CCN(C(=O)CCOCCOCCOCCOCCNC(=O)CN3CCN(CC(=O)O)CCN(CC(=O)O)CCN(CC(=O)O)CC3)CC2)NC(=O)[C@H](CCCCN)NC(=O)CNC(=O)[C@H](C(C)(C)C)NC1=O [compound 408, Ac-hLeu-Y-C-Tbg-G-K-Pip(PEG4-DOTA)Ala-D-V-Y-C-5FW-F-hydroxyVal-dSer-CONH2] (Ac-[hLeu]YC[Tle]GK[Ala(piperidin-4-yl)]([PEG4-DOTA])DVYC[Trp(5-F)]F[Val(3-OH)][dS]-NH2; disulfide 3-11) | < 1 nM | 920 nM | A (%≤25) | C (%>50)
2 | CC(=O)N[C@@H](CCC(C)C)C(=O)N[C@@H](Cc1ccc(O)cc1)C(=O)N[C@H]1CSSC[C@@H](C(=O)N[C@@H](Cc2c[nH]c3ccc(F)cc23)C(=O)N[C@@H](Cc2ccccc2)C(=O)N[C@H](C(=O)N[C@H](CCC(=O)O)C(N)=O)C(C)(C)O)NC(=O)[C@H](Cc2ccc(O)cc2)NC(=O)[C@H](C(C)C)NC(=O)[C@H](CC(=O)O)NC(=O)[C@H](CC2CCN(C(=O)CCOCCOCCOCCOCCNC(=O)CN3CCN(CC(=O)O)CCN(CC(=O)O)CCN(CC(=O)O)CC3)CC2)NC(=O)[C@H](CCCCN)NC(=O)CNC(=O)[C@H](C(C)(C)C)NC1=O [compound 410, Ac-hLeu-Y-C-Tbg-G-K-Pip(PEG4-DOTA)Ala-D-V-Y-C-5FW-F-hydroxyVal-dGlu-CONH2] (Ac-[hLeu]YC[Tle]GK[Ala(piperidin-4-yl)]([PEG4-DOTA])DVYC[Trp(5-F)]F[Val(3-OH)][dE]-NH2; disulfide 3-11) | < 1 nM | 820 nM | A (%≤25) | B (25<%≤50)

Now from value to compound, other results behind:

Row | Kd (human 4lg B7-H3) | Kd (2Ig B7-H3) | Compound | % net internalization (Calu-6 cell line [1]) | % cell associated fraction (Calu-6 cell line [2])
3 | 1 to 10 nM | 6200 nM | CC(=O)N[C@@H](CCC(C)C)C(=O)N[C@@H](Cc1ccc(O)cc1)C(=O)N[C@H]1CSSC[C@@H](C(=O)N[C@@H](Cc2c[nH]c3ccc(F)cc23)C(=O)N[C@@H](Cc2ccccc2)C(=O)N[C@H](C(=O)O)C(C)(C)O)NC(=O)[C@H](Cc2ccc(O)cc2)NC(=O)[C@H](C(C)C)NC(=O)[C@H](CC(=O)O)NC(=O)[C@H](CC2CCN(C(=O)CN3CCN(CC(=O)O)CCN(CC(=O)O)CCN(CC(=O)O)CC3)CC2)NC(=O)[C@H](CCCCN)NC(=O)CNC(=O)[C@H](C(C)(C)C)NC1=O [compound 344, Ac-hLeu-Y-C-Tbg-G-K-Pip(DOTA)Ala-D-V-Y-C-5FW-F-hydroxyVal-COOH] (Ac-[hLeu]YC[Tle]GK[Ala(piperidin-4-yl)](DOTA)DVYC[Trp(5-F)]F[Val(3-OH)]-OH; disulfide 3-11) | – | –
4 | 1 to 10 nM | > 10000 nM | CC(=O)N[C@@H](CCC(C)C)C(=O)N[C@@H](Cc1ccc(O)cc1)C(=O)N[C@H]1CSSC[C@@H](C(=O)N[C@@H](Cc2c[nH]c3ccc(F)cc23)C(=O)N[C@@H](Cc2ccccc2)C(=O)N[C@H](C(=O)N[C@H](CCC(=O)O)C(N)=O)C(C)(C)O)NC(=O)[C@H](Cc2ccc(O)cc2)NC(=O)[C@H](C(C)C)NC(=O)[C@H](CC(=O)O)NC(=O)[C@H](CC2CCOCC2)NC(=O)[C@H](CC2CCN(C(=O)CC[C@H](NC(=O)CN3CCN(CC(=O)O)CCN(CC(=O)O)CCN(CC(=O)O)CC3)C(=O)O)CC2)NC(=O)CNC(=O)[C@H](C(C)(C)C)NC1=O [compound 475, Ac-hLeu-Y-C-Tbg-G-Pip(gE-DOTA)Ala-ThpA-D-V-Y-C-5FW-F-hydroxyVal-dGlu-CONH2] (Ac-[hLeu]YC[Tle]G[Ala(piperidin-4-yl)]([γGlu-DOTA])[Ala(4-THP)]DVYC[Trp(5-F)]F[Val(3-OH)][dE]-NH2; disulfide 3-11) | – | –
5 | < 1 nM | 510 nM | CSCC[C@H](NC(=O)c1ccc(CNC(=O)CN2CCN(CC(=O)O)CCN(CC(=O)O)CCN(CC(=O)O)CC2)cc1)C(=O)N[C@H](C(=O)N[C@@H](CCCCNC(=O)CC[C@@H]1NC(=O)CNC(=O)[C@H](C(C)(C)C)NC(=O)[C@@H](NC(=O)[C@H](Cc2ccc(O)cc2)NC(=O)[C@H](CCC(C)C)NC(C)=O)CSSC[C@@H](C(=O)N[C@@H](Cc2c[nH]c3ccc(F)cc23)C(=O)N[C@H](C(=O)N[C@H](C(=O)N[C@H](CO)C(=O)O)C(C)(C)O)[C@@H](C)c2ccccc2)NC(=O)[C@H](Cc2ccc(O)cc2)NC(=O)[C@H](C(C)C)NC(=O)[C@H](CC(=O)O)NC(=O)[C@H](CC2CCOCC2)NC1=O)C(=O)O)C(C)C [compound 519, Ac-hLeu-Y-C-Tbg-G-Glu[&Lys(OH)-Val-Met-AmBz-DOTA]-ThpA-D-V-Y-C-5FW-[(2S, 3S)beta-Me-Phe]-hydroxyVal-dSer-COOH] (Ac-[hLeu]YC[Tle]GE(X6)[Ala(4-THP)]DVYC[Trp(5-F)][X1][Val(3-OH)][dS]-OH; disulfide 3-11) | – | –

Source: patent US20250296959A1, “B7-H3 TARGETING PEPTIDES AND CONSTRUCTS THEREOF” (Mariana Oncology Inc., priority 2024, published 2025)
